Where two headings read alike, the source gives them in different places.
Key:
OX1 receptor = target: T1, OX1 receptor (Homo sapiens, UniProt O43613); test: Orexin target function test (Cisbio HTRF IP-one), CHO-K1-OX1 cells, antagonism of EC80 Orexin A; type: cell-based
T1 construct: host or cells: CHO-K1
T1 sequence (O43613 1-425): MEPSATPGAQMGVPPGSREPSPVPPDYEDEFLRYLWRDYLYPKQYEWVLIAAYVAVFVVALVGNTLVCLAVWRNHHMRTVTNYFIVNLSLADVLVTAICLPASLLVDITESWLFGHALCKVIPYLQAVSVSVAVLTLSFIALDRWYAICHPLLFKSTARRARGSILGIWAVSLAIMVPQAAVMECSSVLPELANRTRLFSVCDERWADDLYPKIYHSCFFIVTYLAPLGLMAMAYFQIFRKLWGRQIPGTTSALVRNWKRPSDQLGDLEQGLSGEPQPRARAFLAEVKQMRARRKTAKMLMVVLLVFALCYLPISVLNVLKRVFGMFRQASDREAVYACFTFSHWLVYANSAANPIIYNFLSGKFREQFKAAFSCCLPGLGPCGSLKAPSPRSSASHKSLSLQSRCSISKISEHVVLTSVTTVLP
Protocol: (§1) Using Cisbio HTRF IP-one kit to detect the changes in IP-one concentration of orexin receptor (OX1/OX2) signaling pathway by microplate reader, and calculating the IC50 value of the compound to evaluate the antagonistic effect of the compound on OX1 and OX2 receptors.
(§2) The cells were centrifuged at 1000 rpm for 5 minutes and the supernatant was discarded. 3 mL of PBS was added, and gently blown with a pipette to mix. After centrifugation at 1000 rpm for 5 minutes again, the supernatant was discarded. […] Based on the antagonistic effect values of the compound samples at different concentrations, the GraphPad Prism software was used to fit the orexin receptor antagonism curve of the compound samples and calculate the IC50.

OX2 receptor = target: T2, OX2 receptor (Homo sapiens, UniProt O43614); test: Orexin target function test (Cisbio HTRF IP-one), CHO-K1-OX2 cells, antagonism of EC80 Orexin 2 receptor agonist; type: cell-based
T2 construct: host or cells: CHO-K1
T2 sequence (O43614 1-444): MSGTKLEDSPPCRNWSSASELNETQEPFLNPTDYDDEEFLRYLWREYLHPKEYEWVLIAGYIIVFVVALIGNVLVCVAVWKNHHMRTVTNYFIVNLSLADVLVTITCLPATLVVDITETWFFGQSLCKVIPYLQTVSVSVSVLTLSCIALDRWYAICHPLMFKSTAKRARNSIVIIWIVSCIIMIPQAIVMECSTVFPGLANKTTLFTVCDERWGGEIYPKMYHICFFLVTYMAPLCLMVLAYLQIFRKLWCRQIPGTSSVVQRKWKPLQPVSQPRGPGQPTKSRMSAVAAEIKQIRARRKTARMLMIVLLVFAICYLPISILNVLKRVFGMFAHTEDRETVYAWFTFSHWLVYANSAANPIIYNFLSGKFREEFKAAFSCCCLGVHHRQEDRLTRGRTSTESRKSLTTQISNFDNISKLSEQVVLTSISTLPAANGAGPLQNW
Protocol: as §1, §2

in vivo = settings: male, SD, rat, plasma
[1] = CHO-K1-OX1 cells, IP-one, read-out: hOXIR IC50
[2] = CHO-K1-OX2 cells, IP-one, read-out: hOX2R IC50
[3] = ratio of OX1R IC50 to OX2R IC50

Compound `Cc1nc(C2=CC3CN(C(=O)c4c(F)cccc4-c4cc[nH]n4)CC3C2)nc(C)c1F` (centres unmarked) [Compound 29, (5-(5-fluoro-4,6-dimethylpyrimidin-2-yl)-3,3a,4,6a-tetrahydrocyclopenta[c]pyrrol-2(1H)-yl)(2-fluoro-6-(1H-pyrazol-3-yl)phenyl)methanone] has an IC50 (OX1 receptor; [1]) of 1.28 µM, an IC50 (OX2 receptor; [2]) of 0.02 µM and a Selectivity (OX2 receptor; [3]) of 64.

For `[2H]C([2H])([2H])Oc1ncc(C)nc1C1=CC2CN(C(=O)c3ccc(OC)cc3-n3nccn3)CC2C1` (centres unmarked) [Compound 58, [4-methoxy-2-(2H-1,2,3-triazol-2-yl)phenyl][5-[3-(methoxy-d3)-6-methylpyrazin-2-yl]-3,3a,4,6a-tetrahydrocyclopentyl[c]pyrrol-2(1H)-yl]methanone], the IC50 (OX1 receptor; [1]) was 1.98 µM, the IC50 (OX2 receptor; [2]) was 0.024 µM and the Selectivity (OX2 receptor; [3]) was 83.

Compound `CCc1c(C)nc(C2=CC3CN(C(=O)c4c(F)cccc4-n4nccn4)CC3C2)nc1C` (centres unmarked) [Compound 11, (5-(5-ethyl-4,6-dimethylpyrimidin-2-yl)-3,3a,4,6a-tetrahydrocyclopenta[c]pyrrol-2(1H)-yl)(2-fluoro-6-(2H-1,2,3-triazol-2-yl)phenyl)methanone] has an IC50 (OX1 receptor; [1]) of 1.95 µM, an IC50 (OX2 receptor; [2]) of 0.027 µM and a Selectivity (OX2 receptor; [3]) of 72.

`Cc1nc(C2=CC3CN(C(=O)c4c(F)cccc4-n4nccn4)CC3C2)nc2ccoc12` (centres unmarked) [Compound 18, (2-fluoro-6-(2H-1,2,3-triazol-2-yl)phenyl)(5-(4-methylfuro[3,2-d]pyrimidin-2-yl)-3,3a,4,6a-tetrahydrocyclopenta[c]pyrrol-2(1H)-yl)methanone] showed an IC50 (OX1 receptor) of 2.31 µM, an IC50 (OX2 receptor) of 0.0234 µM and a Selectivity (OX2 receptor; [3]) of 99.

`COc1ncc(C)nc1C1=CC2CN(C(=O)c3c(F)cccc3-c3ncccn3)CC2C1` (centres unmarked) [Compound 43, (2-fluoro-6-(pyrimidin-2-yl)phenyl)(5-(3-methoxy-6-methylpyrazin-2-yl)-3,3a,4,6a-tetrahydrocyclopenta[c]pyrrol-2(1H)-yl)methanone] gave an IC50 (OX1 receptor; [1]) of 2.1 µM, an IC50 (OX2 receptor; [2]) of 0.028 µM and a Selectivity (OX2 receptor; [3]) of 75.

`[2H]C([2H])([2H])Oc1ccc(C(=O)N2CC3C=C(c4nc(C)c(F)c(C)n4)CC3C2)c(-n2nccn2)c1` (centres unmarked) [Compound 36, (5-(5-fluoro-4,6-dimethylpyrimidin-2-yl)-3,3a,4,6a-tetrahydrocyclopenta[c]pyrrol-2(1H)-yl)(4-(methoxy-d3)-2-(2H-1,2,3-triazol-2-yl)phenyl)methanone] showed an IC50 (OX1 receptor) of 3.1 µM, an IC50 (OX2 receptor) of 0.018 µM and a Selectivity (OX2 receptor) of 172.

Work on `COc1cnc(OC)c(C2=CC3CN(C(=O)c4ccc(F)cc4-n4nccn4)CC3C2)n1` (centres unmarked) [Compound 50, [5-(3,6-dimethoxypyrazin-2-yl)-3,3a,4,6a-tetrahydrocyclopenta[c]pyrrol-2(1H)-yl][4-fluoro-2-(2H-1,2,3-triazol-2-yl)phenyl]methanone] yielded an IC50 (OX1 receptor) of 3.61 µM, an IC50 (OX2 receptor) of 0.027 µM and a Selectivity (OX2 receptor; [3]) of 134.

`Cc1nc(C2=CC3CN(C(=O)c4c(F)cccc4-n4nccn4)CC3C2)nc2c1CCC2` (centres unmarked) [Compound 17, (2-fluoro-6-(2H-1,2,3-triazol-2-yl)phenyl)(5-(4-methyl-6,7-dihydro-5H-cyclopenta[d]pyrimidin-2-yl)-3,3a,4,6a-tetrahydrocyclopenta[c]pyrrol-2(1H)-yl)methanone] showed an IC50 (OX1 receptor) of 2.88 µM, an IC50 (OX2 receptor) of 0.022 µM and a Selectivity (OX2 receptor; [3]) of 131.

In the case of `[2H]C([2H])([2H])c1cnc(OC)c(C2=CC3CN(C(=O)c4ccc(OC)cc4-n4nccn4)CC3C2)n1` (centres unmarked) [Compound 56, [4-methoxy-2-(2H-1,2,3-triazol-2-yl)phenyl][5-[3-methoxy-6-(methyl-d3)pyrazin-2-yl]-3,3a,4,6a-tetrahydrocyclopentyl[c]pyrrol-2(1H)-yl]methanone], the IC50 (OX1 receptor; [1]) is reported as 2.3 µM, the IC50 (OX2 receptor; [2]) is reported as 0.016 µM and the Selectivity (OX2 receptor; [3]) is reported as 144.

In the case of `Cc1nc(C2=CC3CN(C(=O)c4c(F)cccc4-n4nccn4)CC3C2)nc2c1CCCC2` (centres unmarked) [Compound 14, (2-fluoro-6-(2H-1,2,3-triazol-2-yl)phenyl)(5-(4-methyl-5,6,7,8-tetrahydroquinazolin-2-yl)-3,3a, 4,6a-tetrahydrocyclopenta[c]pyrrol-2(1H)-yl)methanone], the IC50 (OX1 receptor; [1]) is reported as 2.75 µM, the IC50 (OX2 receptor; [2]) is reported as 0.024 µM and the Selectivity (OX2 receptor; [3]) is reported as 114.

Compound `COc1ccc(C(=O)N2C[C@H]3CC(c4nc(Cl)cnc4OC)=C[C@H]3C2)c(-n2nccn2)c1` (relative stereo) [Compound 54] has an IC50 (OX1 receptor; [1]) of 2.6 µM, an IC50 (OX2 receptor; [2]) of 0.022 µM and a Selectivity (OX2 receptor; [3]) of 118.

`[2H]C([2H])([2H])Oc1cc(-n2nccn2)c(C(=O)N2CC3C=C(c4nc(C)c(F)c(C)n4)CC3C2)cn1` (centres unmarked) [Compound 34, (5-(5-fluoro-4,6-dimethylpyrimidin-2-yl)-3,3a,4,6a-tetrahydrocyclopenta[c]pyrrol-2(1H)-yl)(6-(methoxy-d3)-4-(2H-1,2,3-triazol-2-yl)pyridin-3-yl)methanone] showed an IC50 (OX1 receptor) of 5 µM, an IC50 (OX2 receptor) of 0.024 µM and a Selectivity (OX2 receptor) of 208.

`COc1ncc(C2CC2)nc1C1=CC2CN(C(=O)c3ccc(F)cc3-n3nccn3)CC2C1` (centres unmarked) [Compound 55, [5-(6-cyclopropyl-3-methoxypyrazin-2-yl)-3,3a,4,6a-tetrahydrocyclopenta[c]pyrrol-2(1H)-yl][4-fluoro-2-(2H-1,2,3-triazol-2-yl)phenyl]methanone] gave an IC50 (OX1 receptor) of 1.9 µM, an IC50 (OX2 receptor) of 0.028 µM and a Selectivity (OX2 receptor; [3]) of 67.

Compound `Cc1nc(C2=CC3CN(C(=O)c4c(F)cccc4-n4nccn4)CC3C2)nc2c1OCC2` (centres unmarked) [Compound 19, (2-fluoro-6-(2H-1,2,3-triazol-2-yl)phenyl)(5-(4-methyl-6,7-dihydrofuro[3,2-d]pyrimidin-2-yl)-3,3a,4,6a-tetrahydrocyclopenta[c]pyrrol-2(1H)-yl)methanone] has an IC50 (OX1 receptor; [1]) of 2.48 µM, an IC50 (OX2 receptor; [2]) of 0.018 µM and a Selectivity (OX2 receptor; [3]) of 138.

Work on `Cc1cnc(C#N)c(C2=CC3CN(C(=O)c4ccc(F)cc4-n4nccn4)CC3C2)n1` (centres unmarked) [Compound 62, 3-[2-[4-fluoro-2-(2H-1,2,3-triazol-2-yl)benzoyl]-1,2,3,3a,4,6a-hexahydrocyclopenta[c]pyrrol-5-yl]-5-methylpyrazine-2-carbonitrile] yielded an IC50 (OX1 receptor; [1]) of 1.65 µM, an IC50 (OX2 receptor; [2]) of 0.018 µM and a Selectivity (OX2 receptor; [3]) of 92.

Work on `Cc1nc(C2=CC3CN(C(=O)c4c(F)cccc4-n4nccn4)CC3C2)nc(C)c1CF` (centres unmarked) [Compound 38, (2-fluoro-6-(2H-1,2,3-triazol-2-yl)phenyl)(5-(5-(fluoromethyl)-4,6-dimethylpyrimidin-2-yl)-3,3a,4,6a-tetrahydrocyclopenta[c]pyrrol-2(1H)-yl)methanone] yielded an IC50 (OX1 receptor; [1]) of 1.8 µM, an IC50 (OX2 receptor; [2]) of 0.022 µM and a Selectivity (OX2 receptor; [3]) of 82.

`COc1nc(C2=CC3CN(C(=O)c4ccccc4-n4nccn4)CC3C2)nc(C)c1F` (centres unmarked) [Compound 27, (2-(2H-1,2,3-triazol-2-yl)phenyl)(5-(5-fluoro-4-methoxy-6-methylpyrimidin-2-yl)-3,3a,4,6a-tetrahydrocyclopenta[c]pyrrol-2(1H)-yl)methanone] showed an IC50 (OX1 receptor; [1]) of 1.68 µM, an IC50 (OX2 receptor; [2]) of 0.02 µM and a Selectivity (OX2 receptor; [3]) of 84.

Compound `Cc1nc(C2=CC3CN(C(=O)c4c(F)cccc4-n4nccn4)CC3C2)nc(C(C)(C)O)c1F` (centres unmarked) [Compound 37, (5-(5-fluoro-4-(2-hydroxypropan-2-yl)-6-methylpyrimidin-2-yl)-3,3a,4,6a-tetrahydrocyclopenta[c]pyrrol-2(1H)-yl)(2-fluoro-6-(2H-1,2,3-triazol-2-yl)phenyl)methanone] has an AUC(0-t) (in vivo; iv, 1 mg/kg) of 626 ng·h/mL, a Cmax (in vivo; iv, 1 mg/kg) of 980 ng/mL and an AUC(0-t) (in vivo; po, 30 mg/kg) of 16800 ng·h/mL. For the same compound, the Cmax (in vivo; po, 30 mg/kg) was 9240 ng/mL and the bioavailability (in vivo; po, 30 mg/kg) was 89.3%.

`COc1ccc(C(=O)N2CC3C=C(c4nc(OC)cnc4OC)CC3C2)c(-n2nccn2)c1` (centres unmarked) [Compound 53, [5-(3,6-dimethoxypyrazin-2-yl)-3,3a,4,6a-tetrahydrocyclopenta[c]pyrrol-2(1H)-yl][4-methoxy-2-(2H-1,2,3-triazol-2-yl)phenyl]methanone] showed an IC50 (OX1 receptor; [1]) of 2.86 µM, an IC50 (OX2 receptor; [2]) of 0.032 µM and a Selectivity (OX2 receptor; [3]) of 89.

Work on `Cc1nc(C2=CC3CN(C(=O)c4c(F)cccc4-n4nccn4)CC3C2)nc2c1COCC2` (centres unmarked) [Compound 16, (2-fluoro-6-(2H-1,2,3-triazol-2-yl)phenyl)(5-(4-methyl-7,8-dihydro-5H-pyrano[4,3-d]pyrimidin-2-yl)-3,3a,4,6a-tetrahydrocyclopenta[c]pyrrol-2(1H)-yl)methanone] yielded an IC50 (OX1 receptor; [1]) of 1.88 µM, an IC50 (OX2 receptor; [2]) of 0.02 µM and a Selectivity (OX2 receptor; [3]) of 94.
